Read-outs that look alike come from different tables or passages of the source.
How the values were obtained:
[1] = tested on: CT26 model; assay: Mouse colon cancer model; format: in vivo, Balb/c mice; conditions: 5-FU 25 mg/kg, RAP-E 25 mg/kg
Protocol: CT26 model on Balb/c mice was used as another animal model, classified as three groups: a control group (no drug), a comparative group (administration of 5-FU, dose: 25 mg/kg, Q3d^∗4) and the inventive group (administration of RAP-E formulation, dose: 25 mg/kg, Q3d^∗4). 6 week old Balb/c mice (BioLasco, Ilan, Taiwan) were inoculated subcutaneously with 1^∗10^5 CT26 cells (murine colorectal carcinoma cell). Following tumor inoculation, measuring the tumor size twice a week, and starting treatment when the tumor grows to 80-100 mm^3.

[2] = LD50 of previous intravenous injection formulation, converted to mice; conditions: mouse, in vivo, equivalent of the rat value in mice, read-out: lethal dosage 50% (LD50), equivalent in mice
[3] = previous intravenous injection formulation, in rats; cited from earlier work
[4] = tested on: SKOV3 xenograft; assay: Xenograft ovarian tumor in mice; format: in vivo, NOD/SCID mice; conditions: docetaxel 4 mg/kg, RAP-E 50 mg/kg
Excerpt: Akt and mTOR phosphorylation are frequently detected in ovarian cancer, and SKOV3, an ovarian cancer cell line, is resistant to cis-platinum and doxorubicin.

[5] = cited from earlier work

In the case of `O=c1[nH]cc(F)c(=O)[nH]1` [5-FU], the Mean inhibition rate ([1]; Q3d*4) is reported as 11%, the “body weight change / toxicity” value ([1]; Q3d*4) is reported as “significant weight loss” and the “Day 16 tumor inhibition rate” value ([1]; Q3d*4, day 16) is reported as 26%.
In the case of `CO[C@H]1C[C@@H]2CC[C@@H](C)[C@@](O)(O2)C(=O)C(=O)N2CCCC[C@H]2C(=O)O[C@H]([C@H](C)C[C@@H]2CC[C@@H](O)[C@H](OC)C2)CC(=O)[C@H](C)/C=C(\C)[C@@H](O)[C@@H](OC)C(=O)[C@H](C)C[C@H](C)/C=C/C=C/C=C/1C` [Rapamycin], the LD50 [2] is given as 80 mg/kg and the “lethal dosage 50% (LD50)” value [3] is given as 40 mg/kg.
With `CC(=O)O[C@@]12CO[C@@H]1C[C@H](O)[C@@]1(C)C(=O)[C@H](O)C3=C(C)[C@@H](OC(=O)[C@H](O)[C@@H](NC(=O)OC(C)(C)C)c4ccccc4)C[C@@](O)([C@@H](OC(=O)c4ccccc4)[C@H]21)C3(C)C` [docetaxel] the Mean inhibition rate ([4]; Q3d*4) was 53% and the “Day 39 tumor inhibition rate” value ([4]; Q3d*4, day 39) was 57%.
For `CO[C@H]1C[C@@H]2CC[C@@H](C)[C@@](O)(O2)C(=O)C(=O)N2CCCC[C@H]2C(=O)O[C@H]([C@H](C)C[C@@H]2CC[C@@H](OCCO)[C@H](OC)C2)CC(=O)[C@H](C)/C=C(\C)[C@@H](O)[C@@H](OC)C(=O)[C@H](C)C[C@H](C)/C=C/C=C/C=C/1C` [everolimus], the bioavailability ([5]; in a tablet form) is given as ~ 20%.
For `CO[C@H]1C[C@@H]2CC[C@@H](C)[C@@](O)(O2)C(=O)C(=O)N2CCCC[C@H]2C(=O)O[C@H]([C@H](C)C[C@@H]2CC[C@@H](OC(=O)C(C)(CO)CO)[C@H](OC)C2)CC(=O)[C@H](C)/C=C(\C)[C@@H](O)[C@@H](OC)C(=O)[C@H](C)C[C@H](C)/C=C/C=C/C=C/1C` [temsirolimus], the bioavailability ([5]; via intravenous infusion) is given as “up to 100%”.

Reference: patent EP4268800A1 (Prescience Biotechnology Inc., priority 2022, dated 2023)
